# Laboratory results published in US4136165A, “Cosmetic preparations with alkoxybenzoic acid esters as inflammation inhibitors and method” (Henkel Kommanditgesellschaft auf Aktien, priority 1976, dated 1979).
# Where two headings read alike, the source gives them in different places.
# Key:
# [1] = system: UV edema in hairless mouse; assay: Ultraviolet test on hairless mice (UV edema, skin fold thickness); assay type: in vivo; conditions: 5% in Vaseline, skin fold thickness after 30 hrs
# Protocol: However, an ultraviolet test was carried out on hairless mice which also provide information concerning the efficacy of the substances for use as agents for treating sunburn. The backs of the hairless mice were exposed to radiation by an ultraviolet lamp for thirty minutes from a distance of 60 cm, thus causing a cutaneous inflammation. […] The dosage of the test substances was the same as in the rat's paw test. The degree of formation of edema was determined by measuring the skin fold thickness after thirty hours. The degree of the percentage inhibition of the erythema is given in the following Table I and was determined by comparing the change in the skin fold thickness, caused in treated test animals by exposure to radiation, with the change in the skin fold thickness in animals which, although exposed to radiation, had not been treated.
# [2] = system: Carrageenin edema, rat's paw; assay: Rat's paw test, carrageenin edema (amputation methodology); assay type: in vivo; conditions: 1000 mg/kg p.o. one hour before initiating the inflammation, paws weighed three hours after carrageenin
# Excerpt: The so-called amputation methodology, described by C. H. Winter in Journal of Pharmaceutical and Experimental Therapeutics, Vol. 141 (1963), page 369, was used as a further rat's paw test. In this method, the test animals are killed three hours after injecting the substance causing the inflammation, and the weights of the paws are ascertained. The product used to cause inflammation in these tests is carrageenin. The inhibiting of the development of the edema of the rats' paws by the test substance, which was administered orally one hour before initiating the inflammation,serves as an indication of the efficacy and is expressed in percentages.
# [3] = system: UV erythema in guinea pig; assay: Ultraviolet erythema test in guinea pigs; assay type: in vivo; conditions: 5% Tincture, mean of assessments six hours after radiation and the following morning
# Protocol: Guinea pigs were subjected to the ultraviolet erythema test in a further experiment. For this purpose, the hair was removed from the backs of the test animals by shearing and treatment with a depilatory cream. The test animals were then exposed to radiation for eight minutes, and the marked test areas were then treated with the test solutions or salves. A second application was effected after thirty minutes, and a third and the following treatments were effected at intervals of sixty minutes. Six hours after having been exposed to radiation, the animals were washed, dried and visually assessed.
# Assessment was repeated the following morning and the mean value for each substance was calculated from the two assessments. The two spots exposed to radiation directly behind the ears were chosen as reference points which had been exposed to radiation and which had not been treated. The intensity of the redness of these spots was equated with 0. Disappearance of the redness at the treated places was assessed by plus points up to +4 (no spots visible), and an intensification of the redness was assessed with minus points up to -4 (formation of blisters). The total of the assessments from the two evaluations, expressed in the ratio to the number of animals times 8 as the maximum attainable value (= 100%) gives the percentage inhibiting value of the substance. The inhibiting values ascertained in this manner are given in the following table under the heading "UR Erythema Guinea Pigs".
# Dextran edema, rat's paw = assay: Edema of the rat's paw test, dextran edema; assay type: in vivo; conditions: 1000 mg/kg p.o. thirty minutes before dextran, measured thirty minutes after dextran injection
# Protocol: The edema of the rat's paw test, as described by F. Kemper in "Arzneimittelforschung" 10 (1960), p. 777, was used as a test for assessing the compounds with respect to their suitability for inhibiting inflammation. In order to produce the edema, 0.1 ml of 6% dextran solution was injected to a depth of approximately 5 mm between the second and third toe of the right hind paw of the test animals. While only the dextran solution was administered to the control test animals, the various test substances were injected or administered per os to the test animals in the quantities given in Table I thirty minutes before the test animals were injected with the dextran solution. The volume of the paws was determined by means of the electrical volume measuring device described in detail by Kemper & Amelin in "Zeitschrift fur die gesamte experimentelle Medizin" 131 (1958), p. 407.
# The measurements were taken thirty minutes after the dextran solution injection. For the purpose of comparison, the left untreated paw was in each case measured at the said times. The amount of the swelling in animals which had been treated with the test substance and in non-treated animals thirty minutes after the dextran injection were used to calculate the degree of the inhibiting of the edema as a percentage of the swelling which occurred in animals which had not received any test substance.
# [4] = Orientating test of toxicity; conditions: in vivo
# Protocol: The alkoxybenzoic acid esters, to be used in accordance with the present invention, were tested for their inflammation-inhibiting properties in the experiments described hereinafter. An orientating test of their toxicity was first carried out in order to be able to establish the test dosages for further experiments.
SMILES,UV Edema in Hairless Mouse Inhibition After 30 hrs [1],Rat's Paw Test Carrageenin Edema Inhibition [2],UV Erythema in Guinea Pig Inhibition [3],"Rat's Paw Test Dextran Edema Inhibition (Dextran edema, rat's paw)",LD50 ([4]; read-out: Orientating Toxicity),Orientating Toxicity [4],LD50 [4]
"CCCOC(=O)c1ccc(OC)cc1 [Compound A, n-Propyl Anisate]",49%,12%,60%,25%,> 1000 mg/kg,,
"COC(=O)c1ccc(OC)cc1 [Compound B, Methyl Anisate]",41%,18%,31%,28%,> 1000 mg/kg,,
"COc1ccc(C(=O)OC(C)C)cc1 [Compound C, Isopropyl Anisate]",38%,9%,40%,20%,> 1000 mg/kg,,
"CCCCOC(=O)c1ccc(OC)cc1 [Compound D, Butyl Anisate]",36%,11%,51%,9%,> 1000 mg/kg,,
"COc1ccc(C(=O)OC(C)(C)C)cc1 [Compound E, Tert.-Butyl Anisate]",30%,41%,43%,11%,> 1000 mg/kg,,
"COc1ccc(C(=O)OCC(C)(C)C)cc1 [Compound F, 2,2-Dimethyl-propyl Anisate]",35%,30%,48%,15%,,22 1.0 gm/kg,
"COc1ccc(C(=O)OCc2ccccc2)cc1 [Compound G, Benzyl Anisate]",31%,19%,46%,5%,,,> 1000 mg/kg
